Entries after “also recorded” stand apart in the source; their conditions may differ.
Columns and labels:
[1] = Tolerability in mice; assay type: in vivo; settings: incl. daily 20 mg/kg for greater than 60 days and once-weekly 70 mg/kg
Text: Studies that are currently underway in pediatric patients and those being planned must consider the permanent changes on cartilage and bone formation observed in young mice as a result of treatment with the HhAntag Smoothened inhibitor (Kimura et al., (2008) Cancer Cell 13: 249-260). The extent to which this on-target toxicity is species specific remains unknown at this time.

[2] = system: Hedgehog pathway in stromal cells; settings: after single administration; cited from earlier work
[3] = system: primary serous ovarian cancer xenograft; test: Primary serous ovarian cancer xenograft, post carboplatin/taxol; assay type: in vivo, NOD/SCID mice
Procedure: The effects of IPI-926 were examined following carboplatin/taxol combination chemotherapy in a series of primary ovarian cancer xenograft models.
1) IPI-926 was given daily, oral at 40 mg/kg
2) The taxol/carboplatinum was given: • a. Intraperitoneal Carboplatinum 50 mg/kg every 7 days • b. Intraperitoneal Paclitaxel 15 mg/kg every 7 days
Days of carboplatin/taxol and IPI-926 administration are indicated by the arrows. […] The inhibitory effects of IPI-926 persisted after discontinuing administration of IPI-926. Thus, IPI-926 can be useful as maintenance therapy in ovarian cancer.
Excess ovarian tumor tissue from patients was collected. Histologically confirmed papillary serous ovarian tumors was disaggregated into purified tumor cells devoid of hematologic components. These cells were suspended in a 1:1 PBS:Matrigel®. A suspension of a specified number of cells was injected subcutaneously (SC) into 6 week old NOD/SCID mice (NOD/LtSz-Prkdcscid/J; 6-8 weeks; Jackson Labs). The mice were housed and maintained in accordance with the institutional guidelines and tumor formation in the injected animals is monitored regularly. Subcutaneous tumors were measured weekly with calipers, and the volume (in mm^3) was determined using the formula: [length (mm)×width (mm)×width (mm)]/2. Animals were euthanized when they become moribund or had evident excessive tumor burden. For continued propagation in mice, the generated tumors were excised and processed as described for the primary tumor samples, depleted of mouse H2 Kd+ cells (MACS beads) and re-injected subcutaneously into new recipient NOD/SCID mice. All tumor cells utilized for these experiments underwent at least 3 passages to ensure the presence of a tumor initiating population. Histology of each generation was evaluated to confirm the maintenance of papillary serous histology.
Following serial transplantation, a minimum of 40 tumor-bearing mice (300-600 mm^3) were treated with vehicle or paclitaxel (15 mg/kg) and carboplatinum (50 mg/kg) (T/C) IP q 7 days. […] Tumor volume and mouse weights were regularly assessed. […]

[4] = molecular target: T1, D473H SMO mutant (Homo sapiens, UniProt Q99835, D473H); test: Gli-luciferase reporter assay, C3H10T1/2 cells transfected with D473H SMO; assay type: cell-based, mouse
T1 construct: expressed in transfected cells; host or cells: C3H10T1/2 cells (ATCC CCL-226), mouse
Procedure: (§1) Wild type human SMO was subcloned into pcDNA3.1 from an expression construct in pCMV6 (Origene #SC122724). D473H SMO was then generated by site-directed mutagenesis using the Stratagene QuikChange kit (Agilent #200519) and sequence verified.
(§2) Gli-Luciferase reporter assays were performed as described. (Yauch et al. (2009) Science 326: 572-574) Briefly, C3H10 T1/2 cells (ATCC, #CCL-226) were plated in six-well plates at 1×10 to 5th cells per well in BME (Gibco #21010) with 10% FBS (Hyclone #SH30070.03), 2 mM Glutamine (Gibco #25030) and 50 units penicillin/50 ug streptomycin (Gibco #15140). The next morning, cells were transfected with 400 ng SMO expression construct, 400 ng 8× Gli-Luc, and 200 ng pRL-TK per well with GeneJuice transfection reagent (Novagen #70967). Cells in each well were lifted six hours later and replated into four wells of a 12 well plate and allowed to attach overnight. Medium was then changed to low (0.5%) serum and compounds were added in quadruplicate in a range of concentrations. After a 48 hour incubation, firefly and renilla luciferase were assayed using the Promega Dual-Glo Luciferase Assay System (Promega #E2940) and ratios were used to determine percent of control using Prism graphing software.

[5] = system: Ptc^C/C medulloblastoma flank allografts; test: Ptc^C/C medulloblastoma flank allografts (tumor take and response); assay type: in vivo, mouse
Procedure: Animal experiments were performed in accordance with the NIH Guide for the Care and Use of Experimental Animals with approval from the Institutional Animal Care and Use Committee. Freshly excised medulloblastoma tumors from symptomatic Ptc^C/C mice were placed in cooled phosphate buffered saline (PBS), minced with a scalpel, and filtered through a 100 μm cell strainer (BD Bioscience, San Jose, Calif.). The cells were pelleted at 1000 rpm for 5 minutes at 4° C., and resuspended in equal parts DMEM and Matrigel (BD Biosciences, San Diego, Calif.). Recipient mice (wild type littermates) were anesthetized with isoflurane and a suspension of 1×10^6 cells in total volume of 200 μL was injected subcutaneously into the flank using a 30G needle. Tumor growth was measured in two dimensions using digital calipers every 24-48 hours, and the tumor volumes were calculated according to the following formula: 0.5×length×width^2, with width being the smaller of the two dimensions measured. Tumors greater than 2.5 cm in length were harvested and either snap-frozen or fixed in 10% formalin.
To confirm this, aliquots of 1 million cells from the cerebellar tumors of 9 donor Ptc^C/C mice were transplanted to the flanks of 110 recipients.
Recipient mice bearing drug-naïve and IPI-926 treated allograft tumors were then treated with daily IPI-926 (20 mg/kg) and tumor growth was monitored via caliper measurements. […] When tumor volumes reached […], recipient mice then received either daily IPI-926 (20 mg/kg) or vehicle treatment, and the growth of flank allografts was monitored over a nine-week period. […] Half of the allograft mice from drug-treated donors were taken off drug after five weeks of IPI-926 treatment, and the other half received continuous IPI-926 for the nine-week study period. Mice from both groups were monitored for the entire 9-week period.

[6] = molecular target: T2, wild type human SMO (Homo sapiens, UniProt Q99835); test: Gli-luciferase reporter assay, C3H10T1/2 cells transfected with wild type SMO; assay type: cell-based, mouse
T2 construct: host or cells: C3H10T1/2 cells (ATCC CCL-226), mouse
Procedure: as §1, §2

T1 sequence (Q99835 28-787 D473H): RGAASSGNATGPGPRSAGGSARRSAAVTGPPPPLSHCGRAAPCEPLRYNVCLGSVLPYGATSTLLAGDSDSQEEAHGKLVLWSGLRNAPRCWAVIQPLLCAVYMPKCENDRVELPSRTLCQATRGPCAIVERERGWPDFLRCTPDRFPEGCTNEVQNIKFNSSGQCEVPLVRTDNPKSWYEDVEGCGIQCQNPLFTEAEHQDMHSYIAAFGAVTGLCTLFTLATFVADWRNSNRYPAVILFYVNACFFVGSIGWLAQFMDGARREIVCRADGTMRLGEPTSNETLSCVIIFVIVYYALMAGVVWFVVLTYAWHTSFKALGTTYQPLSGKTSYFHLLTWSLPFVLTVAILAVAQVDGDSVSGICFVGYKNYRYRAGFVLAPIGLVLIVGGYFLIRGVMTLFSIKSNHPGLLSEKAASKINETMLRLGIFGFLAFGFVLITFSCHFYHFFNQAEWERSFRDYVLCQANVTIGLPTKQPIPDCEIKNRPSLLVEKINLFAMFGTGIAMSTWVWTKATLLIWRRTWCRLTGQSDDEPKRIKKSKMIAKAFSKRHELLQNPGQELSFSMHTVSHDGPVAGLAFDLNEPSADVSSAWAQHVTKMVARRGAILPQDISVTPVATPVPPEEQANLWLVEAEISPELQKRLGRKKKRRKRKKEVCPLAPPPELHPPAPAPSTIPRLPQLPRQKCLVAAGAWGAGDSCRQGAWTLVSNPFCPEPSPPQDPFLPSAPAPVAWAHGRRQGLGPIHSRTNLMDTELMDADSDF
T2 sequence (Q99835 28-787): as the sequence (Q99835 28-787 D473H) above, with H446D counted along it

CC1=C2C[C@H]3[C@@H](CC[C@@H]4C[C@H](NS(C)(=O)=O)CC[C@@]43C)[C@@H]2CC[C@@]2(C1)O[C@@H]1C[C@H](C)CN[C@H]1[C@H]2C [IPI-926]
tolerability [1]: well tolerated | Hedgehog pathway inhibition in stromal cells [2]: rapid and sustained Hedgehog pathway inhibition | percent tumor volume, IPI-926 alone ([3]; after 20 days of treatment, vs control treated mice): smaller percent tumor volume (p<0.007) | tumor volume after cessation of carboplatin/taxol chemotherapy ([3]; carboplatin/taxol followed by IPI-926 40 mg/kg oral, vs followed by vehicle, 40 mg/kg): prolonged duration of the tumor inhibition; also recorded: smaller percent tumor volume (p<0.02) | mGLI-1 mRNA in tumor ([3]; primary xenograft model of ovarian cancer): modulate mGLI-1 | IC50 [4]: 244 nM | tumor re-growth on continuous IPI-926 ([5]; allografts from drug-treated donors, continuous IPI-926 for nine weeks): no tumors re-grew | tumors that re-grew after going off drug ([5]; allografts from drug-treated donors, off drug after five weeks, monitored 9 weeks): 1 of 6 | allograft tumors undetectable by caliper measurements ([5]; daily IP 20 mg/kg, both allograft groups (drug-naive and IPI-926 treated donors)): 100% | flank tumor take in recipients (tumor initiating capacity) ([5]; donors treated daily 20 mg/kg for 6 weeks before transplantation, drug-naive donors 40 of the 110, P=0.017): 9 of 51 | tumors that progressed while on therapy ([5]; flank allografts from drug-naive donors, 9-week trial): Forty percent | IC50 [6]: 9 nM
